Source: PubChem BioAssay (NCI)
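In this assay, cells in 96-well plates receive the compound at five concentrations for 48 hours. Endpoints are linearly interpolated between the surrounding concentrations. The concentration for full growth arrest is given as TGI.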

Key:
Experiment in all cases: NCI anticancer screen, dose series, 48 h
TK-10 renal = system: TK-10 renal
SN12C renal = system: SN12C renal
HL-60(TB) leukemia = system: HL-60(TB) leukemia
HT29 colon = system: HT29 colon
CAKI-1 renal = system: CAKI-1 renal
SK-MEL-2 melanoma = system: SK-MEL-2 melanoma
MOLT-4 leukemia = system: MOLT-4 leukemia
SF-539 CNS = system: SF-539 CNS
SW-620 colon = system: SW-620 colon
HCT-15 colon = system: HCT-15 colon

For `CCOC(=O)/C=C/c1ccccn1`, the TGI (TK-10 renal) was over 100 µM, the TGI (SN12C renal) was over 100 µM and the TGI (HL-60(TB) leukemia) was over 100 µM. The TGI (HT29 colon) was over 100 µM, the TGI (CAKI-1 renal) was over 100 µM and the TGI (SK-MEL-2 melanoma) was over 100 µM. For the same molecule, the TGI (MOLT-4 leukemia) was over 100 µM, the TGI (SF-539 CNS) was over 100 µM and the TGI (SW-620 colon) was over 100 µM. It also gave a TGI (HCT-15 colon) of over 100 µM.
`O=C(CSc1nnc(-c2ccc(N=Cc3ccc(Cl)cc3)cc2)o1)Nc1cccc(Cl)c1` showed a TGI (TK-10 renal) of over 100 µM, a TGI (SN12C renal) of over 100 µM and a TGI (HL-60(TB) leukemia) of over 100 µM. It also gave a TGI (HT29 colon) of over 100 µM, a TGI (SK-MEL-2 melanoma) of over 100 µM and a TGI (MOLT-4 leukemia) of over 100 µM. It also gave a TGI (SW-620 colon) of over 100 µM and a TGI (HCT-15 colon) of over 100 µM.
`CC(=O)NC(CCCCNC(=O)N(C)N=O)C(=O)NCc1ccccc1` (stereo not drawn) gave a TGI (TK-10 renal) of over 100 µM, a TGI (SN12C renal) of over 100 µM and a TGI (HT29 colon) of over 100 µM. The TGI (CAKI-1 renal) was over 100 µM, the TGI (SK-MEL-2 melanoma) was over 100 µM and the TGI (MOLT-4 leukemia) was over 100 µM. For the same molecule, the TGI (SF-539 CNS) was over 100 µM, the TGI (SW-620 colon) was over 100 µM and the TGI (HCT-15 colon) was over 100 µM.
Work on `CN(C)/C=N/c1nc2ncn(CCOC(=O)c3ccccc3)c2c(=O)[nH]1` yielded a TGI (TK-10 renal) of over 100 µM, a TGI (SN12C renal) of over 100 µM and a TGI (HL-60(TB) leukemia) of over 100 µM. The TGI (HT29 colon) was over 100 µM, the TGI (CAKI-1 renal) was over 100 µM and the TGI (SK-MEL-2 melanoma) was over 100 µM. For the same molecule, the TGI (SF-539 CNS) was over 100 µM, the TGI (SW-620 colon) was over 100 µM and the TGI (HCT-15 colon) was over 100 µM.
For `S=C(Nc1ccccc1)N1N=C2c3ccccc3CC[C@H]2[C@@H]1c1ccccc1`, the TGI (TK-10 renal) was over 100 µM, the TGI (SN12C renal) was over 100 µM and the TGI (HL-60(TB) leukemia) was 4.83 µM. The TGI (HT29 colon) was over 100 µM, the TGI (SK-MEL-2 melanoma) was over 100 µM and the TGI (MOLT-4 leukemia) was over 100 µM. For the same molecule, the TGI (SF-539 CNS) was over 100 µM, the TGI (SW-620 colon) was over 100 µM and the TGI (HCT-15 colon) was over 100 µM.
`CN1OC2OC(=O)OC2[C@H]1[C@H]1O[C@H](c2ccccc2)OC1(C)c1cc(OC(=O)c2ccccc2)ccc1OC(=O)c1ccccc1` (stereo partly drawn) was tested, and the TGI (TK-10 renal) was over 50 µM, the TGI (SN12C renal) was over 50 µM and the TGI (HL-60(TB) leukemia) was over 50 µM. The TGI (HT29 colon) was over 50 µM, the TGI (CAKI-1 renal) was over 50 µM and the TGI (SK-MEL-2 melanoma) was over 50 µM. The TGI (MOLT-4 leukemia) was over 50 µM, the TGI (SF-539 CNS) was over 50 µM and the TGI (SW-620 colon) was over 50 µM. For the same molecule, the TGI (HCT-15 colon) was over 50 µM.
`CSc1ccc2c(cc1=O)[C@@H](NC(=O)c1ccc(F)cc1)CCc1cc(O)c(O)c(O)c1-2` showed a TGI (TK-10 renal) of over 100 µM, a TGI (SN12C renal) of over 100 µM and a TGI (HL-60(TB) leukemia) of over 100 µM. It also gave a TGI (HT29 colon) of over 100 µM, a TGI (CAKI-1 renal) of over 100 µM and a TGI (SK-MEL-2 melanoma) of over 100 µM. The TGI (MOLT-4 leukemia) was over 100 µM, the TGI (SF-539 CNS) was over 100 µM and the TGI (SW-620 colon) was over 100 µM. It also gave a TGI (HCT-15 colon) of over 100 µM.
Work on `COc1ccc(C#CCC(OC2OC(CO)C(O)C(O)C2O)C(O)c2ccc(OC)c(OC)c2)cc1OC` (stereo not drawn) yielded a TGI (SN12C renal) of over 100 µM, a TGI (HL-60(TB) leukemia) of over 100 µM and a TGI (HT29 colon) of over 100 µM. For the same molecule, the TGI (CAKI-1 renal) was over 100 µM, the TGI (SK-MEL-2 melanoma) was over 100 µM and the TGI (MOLT-4 leukemia) was over 100 µM. For the same molecule, the TGI (SF-539 CNS) was over 100 µM, the TGI (SW-620 colon) was over 100 µM and the TGI (HCT-15 colon) was over 100 µM.
Work on `COc1ccc([C@@H]2CC(=O)NCCCCNCCCN2)cc1` yielded a TGI (TK-10 renal) of over 100 µM, a TGI (SN12C renal) of over 100 µM and a TGI (HL-60(TB) leukemia) of over 100 µM. For the same molecule, the TGI (HT29 colon) was over 100 µM, the TGI (CAKI-1 renal) was over 100 µM and the TGI (SK-MEL-2 melanoma) was over 100 µM. It also gave a TGI (MOLT-4 leukemia) of over 100 µM, a TGI (SF-539 CNS) of over 100 µM and a TGI (SW-620 colon) of over 100 µM. The TGI (HCT-15 colon) was over 100 µM.
Molecule `CC1=NN(C(=O)Cc2ccccc2)C(=O)/C1=C\c1ccco1` has a TGI (TK-10 renal) of over 100 µM, a TGI (SN12C renal) of over 100 µM and a TGI (HL-60(TB) leukemia) of over 100 µM. It also gave a TGI (HT29 colon) of over 100 µM, a TGI (CAKI-1 renal) of over 100 µM and a TGI (SK-MEL-2 melanoma) of over 100 µM. It also gave a TGI (MOLT-4 leukemia) of over 100 µM, a TGI (SF-539 CNS) of over 100 µM and a TGI (SW-620 colon) of over 100 µM. It also gave a TGI (HCT-15 colon) of over 100 µM.
With `N#Cc1c2nc3ccccc3nc2n2ccc3ccccc3c12` the TGI (TK-10 renal) was over 100 µM, the TGI (SN12C renal) was over 100 µM and the TGI (HL-60(TB) leukemia) was over 100 µM. The TGI (HT29 colon) was over 100 µM, the TGI (SK-MEL-2 melanoma) was over 100 µM and the TGI (MOLT-4 leukemia) was over 100 µM. It also gave a TGI (SF-539 CNS) of over 100 µM and a TGI (HCT-15 colon) of over 100 µM.
With `O=C(c1ccccc1)c1c(CNCc2ccccc2)n(C(=O)c2ccccc2)c2ccccc12` the TGI (TK-10 renal) was over 100 µM, the TGI (HL-60(TB) leukemia) was 98.7 µM and the TGI (HT29 colon) was over 100 µM. It also gave a TGI (CAKI-1 renal) of over 100 µM, a TGI (SK-MEL-2 melanoma) of over 100 µM and a TGI (MOLT-4 leukemia) of 65.5 µM. For the same molecule, the TGI (SF-539 CNS) was over 100 µM, the TGI (SW-620 colon) was over 100 µM and the TGI (HCT-15 colon) was over 100 µM.
`O=c1[nH]c(=O)n(C2CC(O)C(CO)O2)cc1C#Cc1cc(F)cc(F)c1` (stereo not drawn) was tested, and the TGI (SN12C renal) was over 100 µM, the TGI (HT29 colon) was over 100 µM and the TGI (CAKI-1 renal) was over 100 µM. It also gave a TGI (SK-MEL-2 melanoma) of over 100 µM, a TGI (MOLT-4 leukemia) of over 100 µM and a TGI (SF-539 CNS) of over 100 µM. The TGI (SW-620 colon) was over 100 µM and the TGI (HCT-15 colon) was over 100 µM.
In the case of `CC1CCC23COC(=O)C2C(O)CCC3C1(C)CC(O)c1ccoc1` (stereo not drawn), the TGI (TK-10 renal) is reported as over 100 µM, the TGI (SN12C renal) is reported as over 100 µM and the TGI (HT29 colon) is reported as over 100 µM. The TGI (SK-MEL-2 melanoma) was over 100 µM, the TGI (MOLT-4 leukemia) was over 100 µM and the TGI (SF-539 CNS) was over 100 µM. The TGI (SW-620 colon) was over 100 µM and the TGI (HCT-15 colon) was over 100 µM.
With `O=C(Nc1c(Cl)cc([N+](=O)[O-])cc1Cl)/C(=N\Nc1cccc(Cl)c1)c1c(O)c2ccccc2oc1=O` the TGI (TK-10 renal) was over 100 µM, the TGI (SN12C renal) was over 100 µM and the TGI (HL-60(TB) leukemia) was over 100 µM. For the same molecule, the TGI (HT29 colon) was over 100 µM, the TGI (SK-MEL-2 melanoma) was over 100 µM and the TGI (MOLT-4 leukemia) was over 100 µM. The TGI (SF-539 CNS) was over 100 µM and the TGI (SW-620 colon) was over 100 µM.
With `Nc1ccc(N)c2c1C(=O)c1c(N)ccc(N)c1C2=O` the TGI (TK-10 renal) was over 100 µM, the TGI (SN12C renal) was over 100 µM and the TGI (HL-60(TB) leukemia) was over 100 µM. The TGI (HT29 colon) was over 100 µM, the TGI (CAKI-1 renal) was over 100 µM and the TGI (SK-MEL-2 melanoma) was over 100 µM. It also gave a TGI (MOLT-4 leukemia) of over 63.6 µM, a TGI (SF-539 CNS) of over 88.8 µM and a TGI (SW-620 colon) of over 100 µM. It also gave a TGI (HCT-15 colon) of over 100 µM.
With `COc1cc2c(cc1O)C(C)Cc1cc3c(cc1N(C)CC2)OCO3` (stereo not drawn) the TGI (TK-10 renal) was over 91.4 µM, the TGI (SN12C renal) was 18.3 µM and the TGI (HL-60(TB) leukemia) was over 58.8 µM. The TGI (HT29 colon) was 29.7 µM, the TGI (CAKI-1 renal) was over 74.3 µM and the TGI (SK-MEL-2 melanoma) was 38.1 µM. The TGI (MOLT-4 leukemia) was 36.5 µM, the TGI (SF-539 CNS) was 8.8 µM and the TGI (SW-620 colon) was over 56.4 µM. It also gave a TGI (HCT-15 colon) of 42.7 µM.
`Cc1cc(-c2ccccc2)cc2[n+]1CC=C2` gave a TGI (TK-10 renal) of over 100 µM, a TGI (SN12C renal) of over 100 µM and a TGI (HL-60(TB) leukemia) of over 100 µM. It also gave a TGI (HT29 colon) of over 100 µM, a TGI (CAKI-1 renal) of over 100 µM and a TGI (SK-MEL-2 melanoma) of over 100 µM. For the same molecule, the TGI (SF-539 CNS) was over 100 µM and the TGI (SW-620 colon) was over 100 µM.
